Experiments:
[1] = target: T1, Estrogen receptor (Rattus norvegicus) (UniProt P06211+Q62986); conditions: Uterus
Description: Uterotrophic effect in rats at 50 ug/animal/day hydroxytamoxifen

[2] = target: T1, Estrogen receptor (Rattus norvegicus)
Description: Anti-uterotrophic effect in rats at 50 ug/animal/day in the presence of 0.5 ug estradiol benzoate

SMILES | Uterotropic effect [1] | Antiuterotropic effect [2]
CC/C(=C(\c1ccccc1)c1ccc(OCCN(C)C)cc1)c1cccc(O)c1 | 10.1 | 15.7
CC/C(=C(/c1ccc(OCCN(C)C)cc1)c1cccc(O)c1)c1ccccc1 | 6.7 | 16.7
CC/C(=C(/c1ccccc1)c1ccc(OCCN(C)C)cc1)c1ccc(O)cc1 | 11 | 15.7
C[C@]12CC[C@@H]3c4ccc(OC(=O)c5ccccc5)cc4CC[C@H]3[C@@H]1CC[C@@H]2O | 24 | 21.6
CC/C(=C(/c1ccccc1)c1ccc(OCCN(C)C)cc1)c1cccc(O)c1 | 5.7 | 19.7

From ChEMBL document CHEMBL1122129, “Estrogenic and antiestrogenic activity of monophenolic analogues of tamoxifen, (Z)-2-[p-(1,2-diphenyl-1-butenyl)phenoxy]-N, N-dimethylethylamine” (J Med Chem, 1982)
